Experimental findings from US20040142994A1, “Azolylcarbynol derivatives of aryl (or heteroaryl) for the treatment of respiratory diseases” (priority 2001, published 2004) are described below.

One may read the inhibition as the share of the control response that was lost under treatment. A low value points to little suppression.

The nature of data set [1]: Observation for possible sedative effects in the treated guinea-pigs. The conditions noted are these: ip. The data set is classed as in vivo, guinea-pig. An excerpt: To do this, the antitussive activity has been studied in guinea-pigs, simultaneously studying the possible sedative effects at the doses used in this study. The method used was the one described by Boura [Boura A L A, Green A F, Saunders I A (1970), An antitussive test using guinea-pigs. Br. J. Pharmacol., 39, 225P], con modificaciones más recientes [Adcock J J, Schneider C, Smith T W (1988), Effects of codeine, morphine a novel opioid pentapeptide BW443C, on cough, nociception and ventilation in the unanaesthetized guinea-pig. Br. J. Pharmacol., 93:93-100; Clay T P, Thompson M A (1985), Irritant induced cough as a model of intrapulmonary airway reactivity. Lung, 163:183-191; Forsberg K, Karlsson J-A, Theodorsson E; Lundberg J M; Persson C G A (1988), Cough and bronchoconstriction mediated by capsaicin-sensitive sensory neurons in the guinea-pig. Pulm Pharmacol, 1: 33-39; Gallico L, Borghi A, Dalla Rosa C, Ceserani R, Tognella S (1994), Moguisteine: a novel peripheral non-narcotic antitussive drug. […]
The guinea-pigs (250-400 g) were deprived of water and food 30 minutes before any intervention. […] During this period, the animals were observed continuously, the number of coughs was counted and the baseline value was taken as control. […] The antitussive activity was assessed for each guinea-pig as the reduction in the number of coughs compared to their previously recorded values. […]

In data set [2] the test system is cough induced by citric acid aerosol. Put plainly: Antitussive activity against cough induced by citric acid aerosol in guinea-pig. The data set is classed as in vivo. The conditions noted are these: ip; for N° of Coughs ± SEM: 30 min before citric acid aerosol (7.5% p/v), 12.5 min observation, N=10; for SD-50: antitussive activity, citric acid aerosol. An excerpt: To do this, the antitussive activity has been studied in guinea-pigs, simultaneously studying the possible sedative effects at the doses used in this study. The method used was the one described by Boura [Boura A L A, Green A F, Saunders I A (1970), An antitussive test using guinea-pigs. Br. J. Pharmacol., 39, 225P], con modificaciones más recientes [Adcock J J, Schneider C, Smith T W (1988), Effects of codeine, morphine a novel opioid pentapeptide BW443C, on cough, nociception and ventilation in the unanaesthetized guinea-pig. Br. J. Pharmacol., 93:93-100; Clay T P, Thompson M A (1985), Irritant induced cough as a model of intrapulmonary airway reactivity. Lung, 163:183-191; Forsberg K, Karlsson J-A, Theodorsson E; Lundberg J M; Persson C G A (1988), Cough and bronchoconstriction mediated by capsaicin-sensitive sensory neurons in the guinea-pig. Pulm Pharmacol, 1: 33-39; Gallico L, Borghi A, Dalla Rosa C, Ceserani R, Tognella S (1994), Moguisteine: a novel peripheral non-narcotic antitussive drug. Br. J. Pharmacol,112:795-800].
The guinea-pigs (250-400 g) were deprived of water and food 30 minutes before any intervention. The guinea-pigs, neither ligated nor anaesthetised, were individually placed in a perspex box (20×12×14 cm.) and left for an accommodation period of 15 minutes. After this period, the animals were exposed to an aerosol of an aqueous solution of citric acid (7.5% p/v, 0.39M). This concentration of citric acid is the minimum concentration capable of producing the maximum number of coughs during the observation period (Forsberg et al., 1988). The aerosol was generated for 2.5 minutes using an ultrasound nebulizer (De Vilbiss, Ultraneb 99; mean particle size 0.9 μm, with a flow of 0.5 ml/min.). The observation period with the animals exposed to the nebulized citric acid in the box was 12.5 minutes (2.5 minutes of aerosol production, followed by an additional 10 minutes). During this period, the animals were observed continuously, the number of coughs was counted and the baseline value was taken as control. Only the guinea-pigs that coughed between 15 and 30 times during the observation period were selected for the study. On the day after the selection the animals were randomly treated with the vehicle or with the study product thirty minutes before being exposed again to the citric acid aerosol. The antitussive activity was assessed for each guinea-pig as the reduction in the number of coughs compared to their previously recorded values. On the other hand, the animals were observed from the time of administration of the product until the end of the experiment for possible sedative effects.

As to `CN(C)CCOC(c1ccccc1)c1ccnn1C.O=C(O)CC(O)(CC(=O)O)C(=O)O` (racemic) [Product, (±)-5-{α-[2-(dimethylamine)ethoxy]benzyl}-1-methyl-1H pirazole citrate], the sedative effect entry in data set [1] (10, 40 and 100 mg/kg) is “does not produce any sedative effect”; in data set [1] (maximum dose used 100 mg/kg), “no sedative effect”. For the same molecule, the “N° of Coughs ± SEM” value is on record as 8.7 ± 0.7 in data set [2] (10 mg/kg), 4.3 ± 0.5 in data set [2] (40 mg/kg) and 2.8 ± 0.4 in data set [2] (100 mg/kg). In addition, the “antitussive activity (in words)” value in data set [2] (10, 40 and 100 mg/kg) was “good antitussive activity which is perfectly dose-related”. The same molecule yielded an inhibition at 10 mg/kg in data set [2] (Cavia porcellus, 10 mg/kg, inhibition of coughs) of 37%. In data set [2] (Cavia porcellus, 40 mg/kg, inhibition of coughs), the inhibition at 40 mg/kg came to 71%. This molecule also came in with an inhibition at 100 mg/kg in data set [2] (Cavia porcellus, 100 mg/kg, inhibition of coughs) of 80%. The SD-50 in data set [2] is reported as 17.6 mg/kg, ip; in data set [2] (listed as (±)-5-{α-[2(dimethylamine) ethoxy]benzyl}-1-methyl-1H-pirazole citrate) it was 17.6 mg/kg.
